Reference: patent publication US20250230193A1, “CYCLIC COMPOUND HAVING SELECTIVE KRAS INHIBITORY EFFECT ON HRAS AND NRAS” (CHUGAI SEIYAKU KABUSHIKI KAISHA, priority 2022, published 2025)

What was measured:
[1] = biological target: GDP-bound NRAS wild-type protein (Homo sapiens, UniProt P01111); assay: Binding to NRAS by surface plasmon resonance (SPR), Single Cycle Kinetics; conditions: SPR; KD ratio class
[2] = biological target: GDP-bound HRAS wild-type protein (Homo sapiens, UniProt P01112); assay: Binding to HRAS by surface plasmon resonance (SPR), Single Cycle Kinetics; conditions: SPR; KD ratio class
GDP-bound HRAS wild-type protein, sequence (P01112 whole entry): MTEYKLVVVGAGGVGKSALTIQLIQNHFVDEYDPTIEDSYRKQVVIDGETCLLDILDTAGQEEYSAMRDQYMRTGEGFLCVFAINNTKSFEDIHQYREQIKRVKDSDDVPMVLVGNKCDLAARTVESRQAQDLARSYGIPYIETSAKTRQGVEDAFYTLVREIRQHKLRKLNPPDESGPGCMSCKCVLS

[3] = tested on: human lung cancer strain NCI-H441; assay: cells; conditions: NCI-H441, 96 h, read-out: NCI-H441 IC50 (nM)

GDP-bound NRAS wild-type protein, sequence (P01111 whole entry): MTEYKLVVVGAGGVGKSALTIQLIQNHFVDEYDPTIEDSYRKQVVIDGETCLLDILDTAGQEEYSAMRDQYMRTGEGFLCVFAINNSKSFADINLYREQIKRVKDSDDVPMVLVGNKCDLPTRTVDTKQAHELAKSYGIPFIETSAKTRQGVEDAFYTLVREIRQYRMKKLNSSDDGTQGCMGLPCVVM

| Structure (SMILES) | IC50 [3] [nM] | NRAS/KRAS (ratio of KD value for GDP-bound NRAS wild-type protein to KD value for KRAS) [1] | HRAS/KRAS (ratio of KD value for GDP-bound HRAS wild-type protein to KD value for KRAS) [2] |
| --- | --- | --- | --- |
| CC[C@H](C)[C@@H]1NC(=O)[C@H](CC2CC2)N(C)C(=O)C[C@@H](C(=O)N2CCOCC2)N(C)C(=O)[C@H](C2CCCC2)N(C)C(=O)C2(CCC2)NC(=O)[C@@H]2CCCN2C(=O)[C@H](CCc2ccc(C(F)(F)F)c(Cl)c2)NC(=O)CN(C)C(=O)[C@H](Cc2ccc(C(F)(F)F)cc2)N2C[C@H](C)CC[C@@H](C2=O)N(C)C(=O)CN(C)C1=O [PP1344] | 16.7 | B (a compound having 3 or more and less than 10 is denoted as B) | B (a compound having 3 or more and less than 10 is denoted as B) |
| CC[C@H](C)[C@@H]1NC(=O)[C@H](CC2CCC2)N(C)C(=O)C[C@@H](C(=O)N2CCOCC2)N(C)C(=O)[C@H](C2CCCC2)N(C)C(=O)C2(CCC2)NC(=O)[C@@H]2CCCN2C(=O)[C@H](CCc2ccc(C(F)(F)F)c(Cl)c2)NC(=O)CN(C)C(=O)[C@H](Cc2ccc(C(F)(F)F)cc2)N2C[C@H](C)CC[C@@H](C2=O)N(C)C(=O)[C@@H]2CCN2C1=O [PP1345] | 34.8 | A (a compound having 10 or more and less than 20 is denoted as A) | B (a compound having 3 or more and less than 10 is denoted as B) |
| CC[C@H](C)[C@@H]1NC(=O)[C@H](CC2CC2)N(C)C(=O)C[C@@H](C(=O)N(C)C)N(C)C(=O)[C@H](C2CCCC2)N(C)C(=O)C2(CCCC2)NC(=O)[C@@H]2CCCN2C(=O)[C@H](CCc2ccc(C(F)(F)F)c(Cl)c2)NC(=O)CN(C)C(=O)[C@H](Cc2ccc(C(F)(F)F)cc2)N2C[C@H](C)CC[C@@H](C2=O)N(C)C(=O)CN(C)C1=O [PP1346] | 7.2 | B (a compound having 3 or more and less than 10 is denoted as B) | B (a compound having 3 or more and less than 10 is denoted as B) |
| CCO[C@@H]1C[C@H]2C(=O)NC3(CCCC3)C(=O)N(C)[C@@H](C3CCCC3)C(=O)N(C)[C@H](C(=O)N(C)C)CC(=O)N(C)[C@@H](CC)C(=O)N[C@@H]([C@@H](C)CC)C(=O)N(C)CC(=O)N(C)[C@H]3C[C@H](C)C(C)CN(C3=O)[C@@H](Cc3ccc(C(F)(F)F)cc3)C(=O)N(C)CC(=O)N[C@@H](CCc3cc(F)c(C(F)(F)F)c(F)c3)C(=O)N2C1 (stereo partly drawn) [PP1347] | 3.6 | B (a compound having 3 or more and less than 10 is denoted as B) | B (a compound having 3 or more and less than 10 is denoted as B) |
| CCO[C@@H]1C[C@H]2C(=O)NC3(CCCC3)C(=O)N(C)[C@@H](C3CCCC3)C(=O)N(C)[C@H](C(=O)N3CCOCC3)CC(=O)N(C)[C@@H](CC)C(=O)N[C@@H]([C@@H](C)CC)C(=O)N(C)CC(=O)N(C)[C@H]3C[C@H](C)C(C)CN(C3=O)[C@@H](Cc3ccc(C(F)(F)F)cc3)C(=O)N(C)CC(=O)N[C@@H](CCc3cc(F)c(C(F)(F)F)c(F)c3)C(=O)N2C1 (stereo partly drawn) [PP1348] | 8.7 | B (a compound having 3 or more and less than 10 is denoted as B) | B (a compound having 3 or more and less than 10 is denoted as B) |
| CC[C@H](C)[C@@H]1NC(=O)[C@H](CC)N(C)C(=O)C[C@@H](C(=O)N(C)C)N(C)C(=O)[C@H](C2CCCC2)N(C)C(=O)C2(CCCC2)NC(=O)[C@@H]2CCCN2C(=O)[C@H](CCc2cc(F)c(C(F)(F)F)c(F)c2)NC(=O)CN(C)C(=O)[C@H](Cc2ccc(C(F)(F)F)cc2)N2CC(C)[C@@H](C)C[C@@H](C2=O)N(C)C(=O)CN(C)C1=O (stereo partly drawn) [PP1349] | 14.7 | C (A compound having a KD ratio of 0.1 or more and less than 3 is denoted as C) | B (a compound having 3 or more and less than 10 is denoted as B) |

Now from value to molecule, other results behind:

| IC50 [3] [nM] | Structure (SMILES) | NRAS/KRAS (ratio of KD value for GDP-bound NRAS wild-type protein to KD value for KRAS) [1] | HRAS/KRAS (ratio of KD value for GDP-bound HRAS wild-type protein to KD value for KRAS) [2] |
| --- | --- | --- | --- |
| 20.1 | CC[C@H](C)[C@@H]1NC(=O)[C@H](CC)N(C)C(=O)C[C@@H](C(=O)N2CCOCC2)N(C)C(=O)[C@H](C2CCCC2)N(C)C(=O)C2(CCCC2)NC(=O)[C@@H]2CCCN2C(=O)[C@H](CCc2cc(F)c(C(F)(F)F)c(F)c2)NC(=O)CN(C)C(=O)[C@H](Cc2ccc(C(F)(F)F)cc2)N2CC(C)[C@@H](C)C[C@@H](C2=O)N(C)C(=O)CN(C)C1=O (stereo partly drawn) [PP1350] | B (a compound having 3 or more and less than 10 is denoted as B) | B (a compound having 3 or more and less than 10 is denoted as B) |
| 12.8 | CCO[C@@H]1C[C@H]2C(=O)NC3(CCC3)C(=O)N(C)[C@@H](C3CCCC3)C(=O)N(C)[C@H](C(=O)N3CCOCC3)CC(=O)N(C)[C@@H](CC)C(=O)N[C@@H]([C@@H](C)CC)C(=O)N3CC[C@H]3C(=O)N(C)[C@H]3C[C@@H](C)[C@@H](C)CN(C3=O)[C@@H](Cc3ccc(C(F)(F)F)cc3)C(=O)N(C)CC(=O)N[C@@H](CCc3cc(F)c(C(F)(F)F)c(F)c3)C(=O)N2C1 [PP1351] | A (a compound having 10 or more and less than 20 is denoted as A) | B (a compound having 3 or more and less than 10 is denoted as B) |
| 4.6 | CCO[C@@H]1C[C@H]2C(=O)NC3(CCCC3)C(=O)N(C)[C@@H](C3CCCC3)C(=O)N(C)[C@H](C(=O)N(C)C)CC(=O)N(C)[C@@H](CC)C(=O)N[C@@H]([C@@H](C)CC)C(=O)N(C)CC(=O)N(C)[C@H]3C[C@@H](C)[C@@H](C)CN(C3=O)[C@@H](Cc3ccc(C(F)(F)F)cc3)C(=O)N(C)CC(=O)N[C@@H](CCc3cc(F)c(C(F)(F)F)c(F)c3)C(=O)N2C1 [PP1352] | A (a compound having 10 or more and less than 20 is denoted as A) | B (a compound having 3 or more and less than 10 is denoted as B) |
| 3.7 | CCO[C@@H]1C[C@H]2C(=O)NC3(CCCC3)C(=O)N(C)[C@@H](C3CCCC3)C(=O)N(C)[C@H](C(=O)N3CCOCC3)CC(=O)N(C)[C@@H](CC)C(=O)N[C@@H]([C@@H](C)CC)C(=O)N(C)CC(=O)N(C)[C@H]3C[C@@H](C)[C@@H](C)CN(C3=O)[C@@H](Cc3ccc(C(F)(F)F)cc3)C(=O)N(C)CC(=O)N[C@@H](CCc3cc(F)c(C(F)(F)F)c(F)c3)C(=O)N2C1 [PP1353] | A (a compound having 10 or more and less than 20 is denoted as A) | B (a compound having 3 or more and less than 10 is denoted as B) |
| 3.6 | CCO[C@@H]1C[C@H]2C(=O)NC3(CCC3)C(=O)N(C)[C@@H](C3CCCC3)C(=O)N(C)[C@H](C(=O)N3CCOCC3)CC(=O)N(C)[C@@H](CC)C(=O)N[C@@H]([C@@H](C)CC)C(=O)N(C)CC(=O)N(C)[C@H]3C[C@@H](C)[C@@H](C)CN(C3=O)[C@@H](Cc3ccc(C(F)(F)F)cc3)C(=O)N(C)CC(=O)N[C@@H](CCc3cc(F)c(C(F)(F)F)c(F)c3)C(=O)N2C1 [PP1354] | A (a compound having 10 or more and less than 20 is denoted as A) | B (a compound having 3 or more and less than 10 is denoted as B) |
| 10.2 | CCO[C@@H]1C[C@H]2C(=O)NC3(CCC3)C(=O)N(C)[C@@H](C3CCCC3)C(=O)N(C)[C@H](C(=O)N3CCOCC3)CC(=O)N(C)[C@@H](CC(C)C)C(=O)N[C@@H]([C@@H](C)CC)C(=O)N3CC[C@H]3C(=O)N(C)[C@H]3C[C@@H](C)[C@@H](C)CN(C3=O)[C@@H](Cc3ccc(C(F)(F)F)cc3)C(=O)N(C)CC(=O)N[C@@H](CCc3cc(F)c(C(F)(F)F)c(F)c3)C(=O)N2C1 [PP1355] | A (a compound having 10 or more and less than 20 is denoted as A) | B (a compound having 3 or more and less than 10 is denoted as B) |
| 3.3 | CCO[C@@H]1C[C@H]2C(=O)NC3(CCCC3)C(=O)N(C)[C@@H](C3CCCC3)C(=O)N(C)[C@H](C(=O)N(C)C)CC(=O)N(C)[C@@H](CC3CC3)C(=O)N[C@@H]([C@@H](C)CC)C(=O)N(C)CC(=O)N(C)[C@H]3C[C@@H](C)[C@@H](C)CN(C3=O)[C@@H](Cc3ccc(C(F)(F)F)cc3)C(=O)N(C)CC(=O)N[C@@H](CCc3cc(F)c(C(F)(F)F)c(F)c3)C(=O)N2C1 [PP1356] | B (a compound having 3 or more and less than 10 is denoted as B) | B (a compound having 3 or more and less than 10 is denoted as B) |
| 5.4 | CCO[C@@H]1C[C@H]2C(=O)NC3(CCC3)C(=O)N(C)[C@@H](C3CCCC3)C(=O)N(C)[C@H](C(=O)N3CCOCC3)CC(=O)N(C)[C@@H](CC)C(=O)N[C@@H]([C@@H](C)CC)C(=O)N3CC[C@H]3C(=O)N(C)[C@H]3C[C@@H](C)[C@@H](C)CN(C3=O)[C@@H](Cc3ccc(C(F)(F)F)cc3)C(=O)N(C)CC(=O)N[C@@H](CCc3ccc(C(F)(F)F)c(Cl)c3)C(=O)N2C1 [PP1357] | A (a compound having 10 or more and less than 20 is denoted as A) | B (a compound having 3 or more and less than 10 is denoted as B) |
